Laboratory results from patent publication US20050203110A1, “Mitotic kinesin inhibitors” (priority 2002, published 2005).
pIC50: −log10 of the molar value.

Molecular target: T1, human KSP motor domain (KSP(367H)) (Homo sapiens, UniProt P52732)
T1 construct: were used to amplify the motor domain and the neck linker region; made in house; host or cells: E. coli BL21 (DE3), pRSETa
T1 sequence (P52732 18-359 limits assumed): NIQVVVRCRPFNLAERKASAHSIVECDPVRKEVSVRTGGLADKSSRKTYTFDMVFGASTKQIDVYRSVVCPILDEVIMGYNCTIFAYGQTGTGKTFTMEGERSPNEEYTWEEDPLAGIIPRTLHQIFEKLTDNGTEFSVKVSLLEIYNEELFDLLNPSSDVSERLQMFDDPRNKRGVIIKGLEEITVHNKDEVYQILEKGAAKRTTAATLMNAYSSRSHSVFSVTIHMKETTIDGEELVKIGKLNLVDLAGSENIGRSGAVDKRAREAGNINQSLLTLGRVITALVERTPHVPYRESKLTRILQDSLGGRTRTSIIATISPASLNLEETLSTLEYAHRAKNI
Experiment: Kinesin ATPase In Vitro Assay
Assay type: biochemical
Conditions: kinesin motor domain with microtubules, 1 mM ATP, 23° C.; free phosphate by quinaldine red/ammonium molybdate, absorbance 540 nm
Excerpt: I. Kinesin ATPase In Vitro Assay
Cloning and Expression of Human Poly-Histidine Tagged KSP Motor Domain (KSP(367H))
Plasmids for the expression of the human KSP motor domain construct were cloned by PCR using a pBluescript full length human KSP construct (Blangy et al., Cell, vol. 83, pp1159-1169, 1995) as a template. The N-terminal primer 5′-[…] (SEQ.ID.NO.: 1) and the C-terminal primer 5′-[…] […] (SEQ.ID.NO.: 2) were used to amplify the motor domain and the neck linker region. The PCR products were digested with AseI and XhoI, ligated into the NdeI/XhoI digestion product of pRSETa (Invitrogen) and transformed into E. coli BL21 (DE3).
Cells were grown at 37° C. to an OD600 of 0.5. After cooling the culture to room temperature expression of KSP was induced with 100 μM IPTG and incubation was continued overnight. Cells were pelleted by centrifugation and washed once with ice-cold PBS. Pellets were flash-frozen and stored −80° C.
Cell pellets were thawed on ice and resuspended in lysis buffer (50 mM K-HEPES, pH 8.0, 250 mM KCl, 0.1% Tween, 10 mM imidazole, 0.5 mM Mg-ATP, 1 mM PMSF, 2 mM benzimidine, 1× complete protease inhibitor cocktail (Roche)). Cell suspensions were incubated with 1 mg/ml lysozyme and 5 mM β-mercaptoethanol on ice for 10 minutes, followed by sonication (3×30 sec). All subsequent procedures were performed at 4° C. Lysates were centrifuged at 40,000×g for 40 minutes. Supernatants were diluted and loaded onto an SP Sepharose column (Pharmacia, 5 ml cartridge) in buffer A (50 mM K-HEPES, pH 6.8, 1 mM MgCl2, 1 mM EGTA, 10 μM Mg-ATP, 1 mM DTT) and eluted with a 0 to 750 mM KCl gradient in buffer A. Fractions containing KSP were pooled and incubated with Ni-NTA resin (Qiagen) for one hour. The resin was washed three times with buffer B (Lysis buffer minus PMSF and protease inhibitor cocktail), followed by three 15-minute incubations and washes with buffer B. Finally, the resin was incubated and washed for 15 minutes three times with buffer C (same as buffer B except for pH 6.0) and poured into a column. […]
The kinesin motor domain is incubated with microtubules, 1 mM ATP (1:1 MgCl2:Na-ATP), and compound at 23° C. in buffer containing 80 mM K-HEPES (pH 7.0), 1 mM EGTA, 1 mM DTT, 1 mM MgCl2, and 50 mM KCl. […] Free phosphate from the ATP hydrolysis reaction is measured via a quinaldine red/ammonium molybdate assay by adding 150 μl of quench C buffer containing a 2:1 ratio of quench A:quench B. Quench A contains 0.1 mg/ml quinaldine red and 0.14% polyvinyl alcohol; quench B contains 12.3 mM ammonium molybdate tetrahydrate in 1.15 M sulfuric acid. The reaction is incubated for 10 minutes at 23° C., and the absorbance of the phospho-molybdate complex is measured at 540 nm.

Row | pIC50 | Compound
1 | ≥ 4.30 | CCC(c1nc2cnccc2c(=O)n1Cc1ccccc1)N(CCN(C)C)C(=O)c1ccc(Br)cc1 (racemic) [Compound 3-7, 2-[1′-(N-4-bromobenzoyl)-(N,N-dimethylethylenediamino)propyl]-3-benzyl-pyrido[3,4-d]pyrimidin-4(3H)-one]
2 | ≥ 4.30 | CCC(c1nc2ncccc2c(=O)n1Cc1ccccc1)N(CCN(C)C)C(=O)c1ccc(Br)cc1 (stereo not shown) [Compound 1-6, N-[1-(3-benzyl-4-oxo-3,4-dihydropyrido[2,3-d]pyrimidin-2-yl)propyl]-4-bromo-N-[2-(dimethylamino)ethyl]benzamide]
3 | ≥ 4.30 | CCC(c1nc2c(c(=O)n1Cc1ccccc1)CCCN2)N(CCN(C)C)C(=O)c1ccc(Br)cc1 (stereo not shown) [Compound 2-2, N-[1-(3-benzyl-4-oxo-3,4,5,6,7,8-hexahydropyrido[2,3-d]pyrimidin-2-yl)propyl]4-bromo-N-[2-(dimethylamino)ethyl]benzamide]
4 | ≥ 4.30 | CCC(c1nc2cccnc2c(=O)n1Cc1ccccc1)N(CCN(C)C)C(=O)c1ccc(Br)cc1 (stereo not shown) [Compound 5-6, N-[1-(3-benzyl-4-oxo-3,4-dihydropyrido[3,2-d]pyrimidin-2-yl)propyl]-4-bromo-N-[2-(dimethylamino)ethyl]benzamide]
